Source: US8299067B2, “5-demethoxyfumagillol and derivatives thereof” (Versitech Limited, priority 2008, dated 2012)

Experiments:
[1] = molecular target: T1, Recombinant human MetAP-2 (Homo sapiens, UniProt P50579); test: MetAP-2 enzymatic assay; type: biochemical; conditions: 1 nM purified human MetAP-2, inhibitor incubated at 37° C. for 30 minutes, 1 mM Met-Gly-Met-Met, released methionine
T1 construct: made in house; host or cells: insect cells
Protocol: (B) MetAP-2 Enzymatic Assay Recombinant human MetAP-2 was expressed and purified from insect cells as previously described (Li, X.; Chang, Y.-H. Biochem. Biophys. Res. Commun. 1996, 227, 152). […] To start the enzymatic reaction, […] was added to a concentration of 1 mM to the reaction mixture. Released methionine was quantified at different time points (0, 2, 3 and 5 min) using the method of Zuo et al (Zuo, S.; Guo, Q.; Ling, C.; Chang, Y-.H. Mol. Gen. Genet. 1995, 246, 247).

[2] = tested on: bovine arotic endothelial cells (BAEC); test: BAEC proliferation assay; type: cell-based; conditions: tritiated thymidine incorporation, 24 hours drug plus 6 hours label, 0.5% DMSO
Protocol: (A) BAEC Proliferation Assay
About 2500 bovine arotic endothelial cells (BAEC) in 195 μl of DMEM (Dulbecco's Modified Eagle's Medium) were plated per well of a 96-well plate and grown at 37° C. and 5% CO2. Cells were allowed to recover for 12 hours. 1 μL of 200 times drug stock solution was added to each treatment well. The final vehicle (DMSO) concentration was 0.5%. Vehicle only was used as a control for maximum proliferation. Three wells were treated for each drug concentration. After 24 hours, 1 μCi of tritiated thymidine (diluted in DMEM to a total volume of 10 μL) was added to each well. After additional 6 hours incubation, each well was washed in 180 μl of PBS buffer. 70 μL of trypsin was added to each well. Plates were incubated for 5 minutes at 37° C. Cells were harvested using a Harvester 96 Mach III M (Tomtec) and transferred to glass fiber filters (Wallac). 6 mL of Betaplate Scint (PerkinElmer) was added to each filter in a sealed sample bag. Scintillation counting was done in using a 1450 MicroBeta counter (Wallac). CPM were normalized to vehicle control, averaged across three replicates, and fit to the following equation using GraphPadPrism v4.0: Y=Bottom+(Top-Bottom)/(1+10^((Log EC50−X)*HillSlope)) wherein X is the logarithm of concentration and Y is the response. Y started at Bottom and went to Top with a sigmoid shape. The bottom value was constrained to zero.

T1 sequence (P50579 whole entry): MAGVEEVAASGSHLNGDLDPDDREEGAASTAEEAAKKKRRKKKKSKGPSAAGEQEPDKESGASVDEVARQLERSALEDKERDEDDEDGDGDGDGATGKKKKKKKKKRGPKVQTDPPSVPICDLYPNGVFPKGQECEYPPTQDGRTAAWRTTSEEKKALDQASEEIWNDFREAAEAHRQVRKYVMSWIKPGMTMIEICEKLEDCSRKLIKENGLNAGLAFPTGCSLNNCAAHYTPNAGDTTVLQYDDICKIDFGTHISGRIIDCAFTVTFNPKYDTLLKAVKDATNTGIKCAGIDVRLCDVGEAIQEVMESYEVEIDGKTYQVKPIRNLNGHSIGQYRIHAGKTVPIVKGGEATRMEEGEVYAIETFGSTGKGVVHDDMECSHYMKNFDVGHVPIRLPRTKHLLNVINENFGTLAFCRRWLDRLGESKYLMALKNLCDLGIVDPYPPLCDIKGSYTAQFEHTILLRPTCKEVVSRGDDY

IC50 [1]	Compound	IC50 ([2]; Bos taurus, BAEC, 30 h)	IC50 [2]
42 nM	CC(C)=CC[C@H]1O[C@]1(C)[C@H]1C[C@H](OC(=O)N[C@@H](C(N)=O)c2ccccc2)CC[C@]12CO2 [Compound 17e]	0.085 nM	
50 nM	CC(C)=CC[C@H]1O[C@]1(C)[C@H]1C[C@H](OC(=O)N[C@H](C(N)=O)C(C)C)CC[C@]12CO2 [Compound 17b]	0.11 nM	
11 nM	COc1ccc(CNC(=O)[C@H](Cc2ccccc2)NC(=O)O[C@@H]2CC[C@]3(CO3)[C@@H]([C@@]3(C)O[C@@H]3CC=C(C)C)C2)cc1 [Compound 17m]	0.19 nM	
12 nM	CC(C)=CC[C@H]1O[C@]1(C)[C@H]1C[C@H](OC(=O)N[C@@H](Cc2ccccc2)C(=O)N2CCN(Cc3ccc(F)cc3)CC2)CC[C@]12CO2 [Compound 17k]	0.21 nM	
	CC(C)=CC[C@H]1O[C@]1(C)[C@H]1C[C@H](OC(=O)N2CCN(c3ccc(F)cc3)CC2)CC[C@]12CO2 [Compound 17v]	0.068 nM	
47 nM	C=CCNC(=O)[C@H](Cc1ccccc1)NC(=O)O[C@@H]1CC[C@]2(CO2)[C@@H]([C@@]2(C)O[C@@H]2CC=C(C)C)C1 [Compound 17i]	0.059 nM	
39 nM	CC(C)=CC[C@H]1O[C@]1(C)[C@H]1C[C@H](OC(=O)N[C@H](CC(C)C)C(N)=O)CC[C@]12CO2 [Compound 17f]	0.092 nM	
	CC(C)=CC[C@H]1O[C@]1(C)[C@H]1C[C@H](OC(=O)N2CCN(CC3CCCCC3)CC2)CC[C@]12CO2 [Compound 17w]	0.074 nM	
44 nM	CC(C)=CC[C@H]1O[C@]1(C)[C@H]1C[C@H](OC(=O)N[C@@H](Cc2ccccc2)C(=O)N2CCOCC2)CC[C@]12CO2 [Compound 17h]	0.079 nM	
	CC(C)=CC[C@H]1O[C@]1(C)[C@H]1C[C@H](OC(=O)NN2CCCCC2)CC[C@]12CO2 [Compound 17ab]	0.04 nM	
	CC(C)=CC[C@H]1O[C@]1(C)[C@H]1C[C@H](OC(=O)N2CCCC2)CC[C@]12CO2 [Compound 17s]	0.04 nM	
28 nM	CC(C)=CC[C@H]1O[C@]1(C)[C@H]1C[C@H](OC(=O)N[C@H](C(=O)NC2CCCC2)C(C)C)CC[C@]12CO2 [Compound 17o]	0.035 nM	
	CC(C)=CC[C@H]1O[C@]1(C)[C@H]1C[C@H](OC(=O)N2CCC2)CC[C@]12CO2 [Compound 17r]	0.038 nM	
19 nM	CC(C)=CC[C@H]1O[C@]1(C)[C@H]1C[C@H](OC(=O)N[C@H](C(=O)NC2CC2)C(C)C)CC[C@]12CO2 [Compound 17n]	0.031 nM	
	CC(C)=CC[C@H]1O[C@]1(C)[C@H]1C[C@H](OC(=O)N2CCN(C)CC2)CC[C@]12CO2 [Compound 17u]	0.089 nM	
27 nM	COC(=O)[C@@H](NC(=O)O[C@@H]1CC[C@]2(CO2)[C@@H]([C@@]2(C)O[C@@H]2CC=C(C)C)C1)C(C)C [Compound 17p]	0.062 nM	
21 nM	C#CCNC(=O)[C@@H](Cc1ccccc1)NC(=O)O[C@@H]1CC[C@]2(CO2)[C@@H]([C@@]2(C)O[C@@H]2CC=C(C)C)C1 [Compound 17l]	0.051 nM	
975 nM	CC(C)=CCC1OC1(C)C1CC(O)CCC12CO2 (stereo not shown) [5-Demethoxyfumagillol, 5-demethoxyfumagillol]		0.28 nM
	C=CCN1CCN(C(=O)O[C@@H]2CC[C@]3(CO3)[C@@H]([C@@]3(C)O[C@@H]3CC=C(C)C)C2)CC1 [Compound 17x]	0.047 nM	
29 nM	CC(C)=CC[C@H]1O[C@]1(C)[C@H]1C[C@H](OC(=O)N[C@@H](C(N)=O)C(C)C)CC[C@]12CO2 [Compound 17a]	0.21 nM	
	CC(C)=CC[C@H]1O[C@]1(C)[C@H]1C[C@H](OC(=O)Nc2nccs2)CC[C@]12CO2 [Compound 17ac]	0.038 nM	
26 nM	CC(C)=CC[C@H]1O[C@]1(C)[C@H]1C[C@H](OC(=O)N2CCN(c3ccc([N+](=O)[O-])cc3)CC2)CC[C@]12CO2 [Compound 17q]	0.02 nM	
	CC(C)=CC[C@H]1O[C@]1(C)[C@H]1C[C@H](OC(=O)N2CCCCC2)CC[C@]12CO2 [Compound 17t]	0.081 nM	
	CC(C)=CC[C@H]1O[C@]1(C)[C@H]1C[C@H](OC(=O)N2CCN(C3CCCC3)CC2)CC[C@]12CO2 [Compound 17y]	0.031 nM	
	CC(C)=CC[C@H]1O[C@]1(C)[C@H]1C[C@H](OC(=O)N2CCOCC2)CC[C@]12CO2 [Compound 17z]	0.048 nM	

Compound	IC50 [1]	IC50 ([2]; Bos taurus, BAEC, 30 h)	IC50 [2]
CC(C)=CC[C@H]1O[C@]1(C)[C@H]1C[C@H](OC(=O)N[C@@H](Cc2ccccc2)C(=O)NCCCN=[N+]=[N-])CC[C@]12CO2 [Compound 17g]	41 nM	1.41 nM	
CC(C)=CC[C@H]1O[C@]1(C)[C@H]1C[C@H](OC(=O)N[C@H](Cc2ccccc2)C(N)=O)CC[C@]12CO2 [Compound 17c]	16 nM	0.039 nM	
CC(C)=CC[C@H]1O[C@]1(C)[C@H]1C[C@H](OC(=O)N[C@@H](Cc2ccccc2)C(N)=O)CC[C@]12CO2 [Compound 17d]	56 nM	0.067 nM	
CC(C)=CC[C@H]1O[C@]1(C)[C@H]1C[C@H](OC(=O)N[C@@H](Cc2ccccc2)C(=O)NC2CC2)CC[C@]12CO2 [Compound 17j]	41 nM	0.027 nM	
CO[C@@H]1[C@H](O)CC[C@]2(CO2)[C@H]1[C@@]1(C)O[C@@H]1CC=C(C)C [Fumagillol]	909 nM		2.04 nM
